According to patent US12523664B2, “Sensor chip and methods thereof” (NATIONAL UNIVERSITY OF SINGAPORE, priority 2019, dated 2026):
“Also recorded” adds a separate entry of the source.

Molecular target: amylogenic protein (Homo sapiens, UniProt P05067)
Test: Protein aggregation with or without inhibitor, aggregate size by dynamic light scattering
Format: biochemical
Conditions: 10 μM inhibitor added before 1 h incubation with agitation
Protocol: Aggregate size determination. Hydrodynamic diameter of amylogenic protein and BSA aggregates were determined by dynamic light scattering analysis (Zetasizer Nano ZSP, Malvern). 3×14 measurement runs were performed at 4° C. Z-average diameter and polydispersity were analyzed. For every measurement, the auto-correlation function and polydispersity index were monitored to ensure sample quality for size determination.
Protein aggregation. Lyophilized amylogenic protein was resuspended in NaOH (60 mM, 4° C.), sonicated, and pH adjusted to pH 7.4 in PBS. The protein was immediately filtered through a 0.2-μm membrane filter (Millipore) and the filtrate was used as the small initial aggregates. For preparation of the bigger aggregates, the protein was treated as described above and incubated with agitation for 1 h to induce further aggregation. […] Aggregate size determination was performed at the end of the incubation.

Sequence of amylogenic protein (P05067 672-713 limits assumed): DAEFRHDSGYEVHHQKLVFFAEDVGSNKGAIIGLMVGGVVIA

With `CN(C)c1ccc2nc3ccc(=[N+](C)C)cc-3sc2c1` [inhibitor, methylene blue] the “increase in size as a result of spontaneous protein aggregation” value was “reduced spontaneous protein aggregation; also recorded: minimal”.
